The results in this text go back to patent US20160296499A1, “Spiroindoline Antiparasitic Derivatives” (ZOETIS SERVICES LLC, priority 2013, published 2016).

Like-named read-outs stand apart in the source and are kept apart here.

Experiment [1] has as its system Dirofilaria immitis microfilariae. The experiment can be described thus: Dirofilaria immitis, Microfilariae (DiMF) In Vitro Assay. The following applies: Dirofilaria immitis.
Experiment [2] deals with T1, bovine vesicular acetylcholine transporter (VAChT) (Bos taurus, UniProt E1BK36).
T1 sequence (E1BK36 1-524): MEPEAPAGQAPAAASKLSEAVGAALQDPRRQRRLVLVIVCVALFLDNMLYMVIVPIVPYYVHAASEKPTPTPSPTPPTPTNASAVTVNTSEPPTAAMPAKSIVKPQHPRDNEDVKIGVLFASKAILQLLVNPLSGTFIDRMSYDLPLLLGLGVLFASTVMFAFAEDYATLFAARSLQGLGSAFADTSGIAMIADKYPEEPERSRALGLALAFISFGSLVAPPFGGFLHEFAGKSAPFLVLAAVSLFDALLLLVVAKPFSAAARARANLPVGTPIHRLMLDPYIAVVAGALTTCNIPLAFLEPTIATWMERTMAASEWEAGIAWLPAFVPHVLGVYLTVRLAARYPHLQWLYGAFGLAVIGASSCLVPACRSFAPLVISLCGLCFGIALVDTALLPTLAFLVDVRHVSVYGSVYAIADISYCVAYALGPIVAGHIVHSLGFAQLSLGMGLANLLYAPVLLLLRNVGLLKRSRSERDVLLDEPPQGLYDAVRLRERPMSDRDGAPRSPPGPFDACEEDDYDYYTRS
The experiment is described as follows: Radioligand Binding Assay. The following applies: Bovine binding Ki, CHO-K1 membranes with recombinant bovine VAChT, [3H]Compound X6 0.3 nM.

The test system of experiment [3] is Haemonchus contortus L3. The experiment is described as follows: Haemonchus contortus, Larvae Stage 3 (HcL3) In Vitro Assay. The following applies: Haemonchus contortus.
Where [4] appears, read: 72 h, read-out: Di MF, MEC, decrease in microfilariae motility by visual assessment, curve starting at 100 μM.
The mark [5] stands for this setting: 96 h, read-out: HcL3 MEC, Minimal Effective Concentration whereby worm motility is inhibited by approximately 70%, 37° C., tested 0.001-100 μM.
Where [6] appears, read: 96 hours, 37° C., read-out: HcL3 MEC.

Broadly, the Ki is a dissociation constant, usually derived from enzyme kinetics or from competition with a known ligand. In the case of `O=C(NCc1ccnc(Cl)c1)N1CC2(CCN(C/C=C/c3ccc(OC(F)(F)F)cc3)CC2)c2ccc(C(F)(F)F)cc21` [Example 130, (E)-N-((2-chloropyridin-4-yl)methyl)-1′-(3-(4-(trifluoromethoxy)phenyl)allyl)-6-(trifluoromethyl)spiro[indoline-3,4′-piperidine]-1-carboxamide], the figures for the minimal effective concentration in experiment [1] (setting [4]) and in experiment [3] (setting [5]) were 18.2 µM and 1.8 µM, respectively. In experiment [2], the Ki came out at 193 nM.

For `O=C(NCc1ccnc(Cl)c1)N1CC2(CCN(C/C=C/c3ccc(C(F)(F)F)cc3)CC2)c2ccc(C(F)(F)F)cc21` [Example 138, (E)-N-((2-chloropyridin-4-yl)methyl)-6-(trifluoromethyl)-1′-(3-(4-(trifluoromethyl)phenyl)allyl)spiro[indoline-3,4′-piperidine]-1-carboxamide], the minimal effective concentration came to 10 µM in experiment [1] (setting [4]) and 3.3 µM in experiment [3] (setting [5]). Also, the Ki in experiment [2] worked out at 57.2 nM.

As to `O=C(NCc1ccnc(F)c1)N1CC2(CCN(C/C=C/c3ccc(Cl)cc3)CC2)c2ccc(-c3ccccc3OC(F)(F)F)cc21` [Example 73, (E)-1′-(3-(4-chlorophenyl)allyl)-N-((2-fluoropyridin-4-yl)methyl)-6-(2-(trifluoromethoxy)phenyl)spiro[indoline-3,4′-piperidine]-1-carboxamide], the minimal effective concentration in experiment [1] (setting [4]) turned out to be 3.3 µM; in experiment [3] (setting [5]) it was 100 µM. Moreover, the Ki in experiment [2] was 29.5 nM.

As for `O=C(NCc1ccnc(C(F)(F)F)c1)N1CC2(CCN(C/C=C/c3ccc(Cl)cc3)CC2)c2cc(OC(F)(F)F)ccc21` [Example 179, (E)-1′-(3-(4-chlorophenyl)allyl)-5-(trifluoromethoxy)-N-((2-(trifluoromethyl)pyridin-4-yl)methyl)spiro[indoline-3,4′-piperidine]-1-carboxamide], the minimal effective concentration in experiment [1] (72 hours, read-out: Di MF) turned out to be 3.3 µM; in experiment [3] (setting [6]), 7.6 µM. Moreover, in experiment [2], the Ki was found to be 371 nM.

In the case of `O=C(NCc1cnc(Cl)s1)N1CC2(CCN(C/C=C/c3ccc(Cl)cc3)CC2)c2cc(C(F)(F)F)ccc21` [Example 85, (E)-1′-(3-(4-chlorophenyl)allyl)-N-((2-chlorothiazol-5-yl)methyl)-5-(trifluoromethyl)spiro[indoline-3,4′-piperidine]-1-carboxamide], the minimal effective concentration in experiment [1] (72 hours, read-out: Di MF) amounted to 10 µM; in experiment [3] (setting [6]) it was 18.2 µM. In experiment [2], the Ki came to 226 nM.

With `O=C(NCc1ccnc(Cl)c1)N1CC2(CCN(C/C=C/c3ccc(C(F)(F)F)cn3)CC2)c2cc(OC(F)(F)F)ccc21` [Example 182, (E)-N-((2-chloropyridin-4-yl)methyl)-5-(trifluoromethoxy)-1′-(3-(5-(trifluoromethyl)pyridin-2-yl)allyl)spiro[indoline-3,4′-piperidine]-1-carboxamide], the minimal effective concentration in experiment [1] (setting [4]) and in experiment [3] (setting [5]) was 10 µM throughout. Also, the Ki in experiment [2] stood at 1470 nM.

For the compound `O=C(NCc1ccnc(F)c1)N1CC2(CCN(C/C=C/c3ccc(Cl)cc3)CC2)c2cc(OC(F)(F)F)ccc21` [Example 77, (E)-1′-(3-(4-chlorophenyl)allyl)-N-((2-fluoropyridin-4-yl)methyl)-5-(trifluoromethoxy)spiro[indoline-3,4′-piperidine]-1-carboxamide], the minimal effective concentration in experiment [1] (72 hours, read-out: Di MF) turned out to be 3.3 µM; in experiment [3] (setting [6]) it was 5.7 µM. The Ki in experiment [2] was 870 nM.

With `O=C(NCc1ccnc(Cl)c1)N1CC2(CCN(C/C=C/c3ccc(F)cc3)CC2)c2cc(OC(F)(F)F)ccc21` [Example 163, (E)-N-((2-chloropyridin-4-yl)methyl)-1′-(3-(4-fluorophenyl)allyl)-5-(trifluoromethoxy)spiro[indoline-3,4′-piperidine]-1-carboxamide], the minimal effective concentration stood at 2.5 µM in experiment [1] (72 hours, read-out: Di MF) and 10.1 µM in experiment [3] (setting [6]). In experiment [2], the Ki turned out to be 554 nM.

`O=C(NCc1ccnc(C(F)(F)F)c1)N1CC2(CCN(C/C=C/c3ccc(F)cc3)CC2)c2cc(OC(F)(F)F)ccc21` [Example 175, (E)-1′-(3-(4-fluorophenyl)allyl)-5-(trifluoromethoxy)-N-((2-(trifluoromethyl)pyridin-4-yl)methyl)spiro[indoline-3,4′-piperidine]-1-carboxamide]: the minimal effective concentration in experiment [1] (setting [4]) was 3.3 µM; in experiment [3] (setting [5]), 24.5 µM. In addition, the Ki in experiment [2] worked out at 452 nM.

As to `O=C(NCc1ccnc(Cl)c1)N1CC2(CCN(C/C=C/c3ccc(F)cc3)CC2)c2c(OC(F)(F)F)ccc(Cl)c21` [Example 58, (E)-7-chloro-N-((2-chloropyridin-4-yl)methyl)-1′-(3-(4-fluorophenyl)allyl)-4-(trifluoromethoxy)spiro[indoline-3,4′-piperidine]-1-carboxamide], the minimal effective concentration worked out at 10 µM in experiment [1] (setting [4]) and 100 µM in experiment [3] (setting [5]). Further, the inhibitory constant (Ki) in experiment [2] turned out to be 1360 nM.

Consider `O=C(NCc1ccnc(C(F)(F)F)c1)N1CC2(CCN(C/C=C/c3ccc(C(F)(F)F)cc3)CC2)c2cc(OC(F)(F)F)ccc21` [Example 177, (E)-5-(trifluoromethoxy)-1′-(3-(4-(trifluoromethyl)phenyl)allyl)-N-((2-(trifluoromethyl)pyridin-4-yl)methyl)spiro[indoline-3,4′-piperidine]-1-carboxamide], for which the minimal effective concentration in experiment [1] (setting [4]) was 3.3 µM; in experiment [3] (setting [5]), 100 µM. Further, the Ki in experiment [2] was determined as 1670 nM.

As for `O=C(NCc1ccnc(F)c1)N1CC2(CCN(C/C=C/c3ccc(Cl)c(Cl)c3)CC2)c2cc(-c3cncnc3)ccc21` [Example 112, 1′-[(E)-3-(3,4-dichlorophenyl)allyl]-N-[(2-fluoro-4-pyridyl)methyl]-5-pyrimidin-5-yl-spiro[indoline-3,4′-piperidine]-1-carboxamide], the minimal effective concentration in experiment [1] (setting [4]) amounted to 4.4 µM; in experiment [3] (setting [5]), 100 µM. The Ki in experiment [2] was 3340 nM.

In the case of `O=C(NCc1ccnc(Cl)c1)N1CC2(CCN(C/C=C/c3ccc(F)cc3)CC2)c2c(Cl)cc(Cl)cc21` [Example 161, (E)-4,6-dichloro-N-((2-chloropyridin-4-yl)methyl)-1′-(3-(4-fluorophenyl)allyl)spiro[indoline-3,4′-piperidine]-1-carboxamide], the minimal effective concentration in experiment [1] (setting [4]) and in experiment [3] (setting [5]) was 10 µM throughout. Also, the Ki in experiment [2] amounted to 259 nM.

In the case of `O=C(NCc1cnc(Cl)s1)N1CC2(CCN(C/C=C/c3ccc(Cl)cc3)CC2)c2c(OC(F)(F)F)cccc21` [Example 95, (E)-1′-(3-(4-chlorophenyl)allyl)-N-((2-chlorothiazol-5-yl)methyl)-4-(trifluoromethoxy)spiro[indoline-3,4′-piperidine]-1-carboxamide], the values for the minimal effective concentration in experiment [1] (setting [4]) and in experiment [3] (setting [5]) were 3.3 µM and 100 µM, respectively. In addition, the Ki in experiment [2] amounted to 1010 nM.

As to `N#Cc1cccc(-c2ccc3c(c2)C2(CCN(C/C=C/c4ccc(Cl)c(Cl)c4)CC2)CN3C(=O)NCc2ccnc(F)c2)c1` [Example 108, 5-(3-cyanophenyl)-1′-[(E)-3-(3,4-dichlorophenyl)allyl]-N-[(2-fluoro-4-pyridyl)methyl]spiro[indoline-3,4′-piperidine]-1-carboxamide], the results for the minimal effective concentration in experiment [1] (setting [4]) and in experiment [3] (setting [5]) were 3.3 µM and 100 µM, respectively. In addition, the Ki in experiment [2] came to 32600 nM.

For the compound `COc1ccc(/C=C/CN2CCC3(CC2)CN(C(=O)NCc2ccnc(Cl)c2)c2ccc(C(F)(F)F)cc23)cc1` [Example 168, (E)-N-((2-chloropyridin-4-yl)methyl)-1′-(3-(4-methoxyphenyl)allyl)-5-(trifluoromethyl)spiro[indoline-3,4′-piperidine]-1-carboxamide], the minimal effective concentration in experiment [1] (72 hours, read-out: Di MF) was determined as 3.3 µM; in experiment [3] (setting [6]), 33 µM. Also, in experiment [2], the Ki came to 266 nM.

For `O=C(NCc1ccnc(F)c1)N1CC2(CCN(C/C=C/c3ccc(Cl)cc3)CC2)c2c(OC(F)(F)F)cccc21` [Example 94, (E)-1′-(3-(4-chlorophenyl)allyl)-N-((2-fluoropyridin-4-yl)methyl)-4-(trifluoromethoxy)spiro[indoline-3,4′-piperidine]-1-carboxamide], the minimal effective concentration was 3.3 µM in experiment [1] (setting [4]) and 100 µM in experiment [3] (setting [5]). In addition, the Ki in experiment [2] was determined as 3930 nM.

On to `O=C(NCc1ccnc(F)c1)N1CC2(CCN(C/C=C/c3ccc(Cl)cc3)CC2)c2cc(Br)ccc21` [Example 105, 5-bromo-1′-[(E)-3-(4-chlorophenyl)allyl]-N-[(2-fluoro-4-pyridyl)methyl]spiro[indoline-3,4′-piperidine]-1-carboxamide], for which the minimal effective concentration in experiment [1] (setting [4]) and in experiment [3] (setting [5]) was 3.3 µM throughout. Also, the Ki in experiment [2] is 32.2 nM.

For `COc1ccc2ccc(CN3CCC4(CC3)CN(C(=O)NCc3ccnc(F)c3)c3ccc(C#N)cc34)c(C)c2n1` [Example 117, 5-cyano-N-[(2-fluoro-4-pyridyl)methyl]-1′-[(2-methoxy-8-methyl-7-quinolyl)methyl]spiro[indoline-3,4′-piperidine]-1-carboxamide], the minimal effective concentration in experiment [1] (setting [4]) and in experiment [3] (setting [5]) was 10 µM throughout. Besides, the Ki in experiment [2] came out at 191 nM.
